Columns and labels:
SARS-CoV-2 [1] = test: Antiviral activity against SARS-CoV-2 B.1.1.7 variant assessed as neutralization viral infection in Vero cells by measuring cytopathic effect incubated for 4 days by crystal violet staining based assay; assay type: functional, organism-based; settings: Severe acute respiratory syndrome coronavirus 2, B.1.1.7, Vero, 96 h
SARS-CoV-2 [2] = test: Antiviral activity against SARS-CoV-2 B.1.351 variant assessed as neutralization viral infection in Vero cells by measuring cytopathic effect incubated for 4 days by crystal violet staining based assay; assay type: functional, organism-based; settings: Severe acute respiratory syndrome coronavirus 2, B.1.351, Vero, 96 h

Row | SMILES | IC50 (SARS-CoV-2 [1]) [µM] | IC50 (SARS-CoV-2 [2]) [µM]
1 | CC[C@@H](C)[C@@H](NC(=O)CNC(=O)[C@@H](CC(C)C)NC(=O)CNC(=O)[C@@H](CCCCN)NC(=O)CNC(=O)[C@@H](CC(=O)O)NC(=O)[C@@H](Cc1ccccc1)NC(=O)[C@H](N)CCCNC(=N)N)C(=O)N[C@H](Cc1ccc(O)cc1)C(=O)N[C@H](CCC(N)=O)C(=O)N[C@H](Cc1ccc(O)cc1)C(=O)N[C@H](CCSC)C(=O)N[C@H](CCC(=O)O)C(=O)N[C@H](CCC(=O)O)C(=O)N[C@@H](C(=O)N[C@H](CCC(=O)O)C(=O)N[C@H](Cc1cnc[nH]1)C(=O)N[C@H](C)C(=O)N[C@H](C)C(=O)N[C@H](CO)C(=O)N[C@H](CCCNC(=N)N)C(=O)N[C@H](Cc1ccccc1)C(=O)N[C@H](C)C(=O)N[C@H](Cc1ccc(O)cc1)C(=O)N[C@H](Cc1ccccc1)C(=O)N[C@H](Cc1ccccc1)C(=O)N[C@H](Cc1ccc(O)cc1)C(=O)N[C@H](CCC(N)=O)C(=O)N[C@H](Cc1cnc[nH]1)C(=O)N[C@H](CC(C)C)C(=O)N[C@H](C)C(=O)O)[C@H](C)CC | 33.4 | 11.1
2 | CC[C@@H](C)[C@@H](NC(=O)[C@@H](Cc1cnc[nH]1)NC(=O)[C@H](NC(=O)[C@@H](CCC(=O)O)NC(=O)[C@@H](CCC(=O)O)NC(=O)[C@@H](CCSC)NC(=O)[C@@H](CC(C)C)NC(=O)[C@@H](C)NC(=O)[C@@H](Cc1ccc(O)cc1)NC(=O)[C@@H](CC(C)C)NC(=O)[C@@H](C)NC(=O)[C@H](NC(=O)[C@@H](CCC(N)=O)NC(=O)[C@H](N)CC(C)C)[C@H](C)O)[C@H](C)CC)C(=O)N[C@H](C)C(=O)N[C@H](C)C(=O)N[C@H](CC(C)C)C(=O)N[C@H](CCC(=O)O)C(=O)N[C@H](CCCCN)C(=O)N[C@@H](C(=O)N[C@H](Cc1c[nH]c2ccccc12)C(=O)N[C@@H](C(=O)N[C@H](C)C(=O)N[C@H](CC(C)C)C(=O)N[C@H](CCCNC(=N)N)C(=O)N[C@H](Cc1cnc[nH]1)C(=O)N[C@H](CCC(N)=O)C(=O)N[C@H](Cc1ccc(O)cc1)C(=O)N[C@@H](C(=O)O)[C@H](C)O)[C@H](C)O)[C@H](C)O | 5.57 | 7.37
